Literature values in patent US20120095087A1, “ENHANCED PRODUCTS BY SUSTAINABLE PROCESSES FOR MEDICINAL USE” (priority 2010, published 2012).

Columns and labels:
[1] = animal tests
cancer cell growth = details: low potency in non-cancer cells
gene ID1 = details: in vitro
CB2 receptors = CB2 receptors (Homo sapiens, UniProt P34972)
GPR55 = GPR55 (Homo sapiens, UniProt Q9Y2T6); details: putative new cannabinoid receptor
5-HT1A receptor = target: T1, 5-HT1A receptor (Homo sapiens, UniProt P08908)
T1 sequence (P08908 1-422): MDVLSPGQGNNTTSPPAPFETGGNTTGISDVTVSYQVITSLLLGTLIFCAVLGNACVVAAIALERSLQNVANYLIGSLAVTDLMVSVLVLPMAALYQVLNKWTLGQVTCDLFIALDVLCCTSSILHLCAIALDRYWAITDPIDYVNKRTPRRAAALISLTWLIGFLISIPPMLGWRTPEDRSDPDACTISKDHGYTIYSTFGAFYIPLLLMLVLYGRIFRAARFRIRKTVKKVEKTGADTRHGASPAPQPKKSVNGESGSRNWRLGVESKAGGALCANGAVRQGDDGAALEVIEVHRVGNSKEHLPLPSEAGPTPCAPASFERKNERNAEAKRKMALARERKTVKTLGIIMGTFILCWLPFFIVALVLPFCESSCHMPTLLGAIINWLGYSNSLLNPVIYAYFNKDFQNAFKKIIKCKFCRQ

Sequence of CB2 receptors (P34972 whole entry): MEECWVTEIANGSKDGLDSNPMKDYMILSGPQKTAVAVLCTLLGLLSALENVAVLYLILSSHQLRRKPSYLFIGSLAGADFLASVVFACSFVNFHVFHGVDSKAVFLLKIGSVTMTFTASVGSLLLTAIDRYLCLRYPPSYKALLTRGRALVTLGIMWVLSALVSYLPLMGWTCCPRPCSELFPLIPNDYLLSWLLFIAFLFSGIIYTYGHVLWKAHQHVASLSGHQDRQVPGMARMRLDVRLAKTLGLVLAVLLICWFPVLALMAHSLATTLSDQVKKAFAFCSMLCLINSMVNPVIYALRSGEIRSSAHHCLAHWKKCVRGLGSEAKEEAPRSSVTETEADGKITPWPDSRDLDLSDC
Sequence of GPR55 (Q9Y2T6 whole entry, species assumed): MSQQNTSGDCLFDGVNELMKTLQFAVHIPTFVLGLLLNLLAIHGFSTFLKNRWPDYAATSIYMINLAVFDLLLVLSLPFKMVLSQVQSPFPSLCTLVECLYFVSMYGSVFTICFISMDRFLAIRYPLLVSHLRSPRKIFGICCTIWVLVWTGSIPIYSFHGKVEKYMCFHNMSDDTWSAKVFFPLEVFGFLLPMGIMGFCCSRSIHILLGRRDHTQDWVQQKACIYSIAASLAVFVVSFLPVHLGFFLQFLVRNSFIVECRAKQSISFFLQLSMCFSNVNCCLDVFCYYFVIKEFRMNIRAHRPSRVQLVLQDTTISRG

Row | SMILES | sedative effects [1] | cancer cell growth (cancer cell growth) | activity of the gene ID1 (gene ID1) | affinity for CB2 receptors (CB2 receptors) | action at GPR55 (GPR55) | action at 5-HT1A receptor (5-HT1A receptor) | potency relative to THC
1 | C=C(C)[C@@H]1CCC(C)=C[C@H]1c1c(O)cc(CCCCC)cc1O [Cannabidiol, cannabidiol] | sedative effects | inhibit cancer cell growth | downregulates | no affinity | antagonist | agonist | 
2 | CCCCCCC(C)(C)c1cc(O)c2c(c1)OC(C)(C)[C@@H]1CC=C(CO)C[C@@H]21 [HU-210] |  |  |  |  |  |  | about 100 times
